Source: patent publication US8119633B2, “Substituted sulfonamide compounds” (Gruenenthal GmbH, priority 2007, dated 2012)
Read-outs that look alike come from different tables or passages of the source.

Key:
[1] = biological target: T1, bradykinin receptor 1 (B1R) of the rat (Rattus norvegicus, UniProt P97583); assay: Functional study on the bradykinin receptor 1 (B1R), rat: FLIPR Ca2+ influx assay; type: cell-based
T1 construct: expressed in transfected cells; host or cells: CHO K1 cells
T1 sequence (P97583 1-337): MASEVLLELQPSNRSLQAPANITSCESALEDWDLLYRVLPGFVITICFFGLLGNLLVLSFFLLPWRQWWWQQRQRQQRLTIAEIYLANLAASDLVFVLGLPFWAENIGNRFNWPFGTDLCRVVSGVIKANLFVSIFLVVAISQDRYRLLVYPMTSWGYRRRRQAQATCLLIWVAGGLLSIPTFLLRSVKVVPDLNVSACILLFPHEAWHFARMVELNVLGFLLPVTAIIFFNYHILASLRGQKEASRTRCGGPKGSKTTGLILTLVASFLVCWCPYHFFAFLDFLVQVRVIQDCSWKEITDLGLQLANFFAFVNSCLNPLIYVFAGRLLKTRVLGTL
Description: (§1) The agonistic or antagonistic action of substances can be determined on the bradykinin receptor 1 (B1R) of the species human and rat using the following assay. According to this assay, the Ca^2+ influx through the channel is quantified with the aid of a Ca^2+-sensitive dye (Fluo-4 type, Molecular Probes Europe BV, Leiden, Netherlands) using a Fluorescent Imaging Plate Reader (FLIPR, Molecular Devices, Sunnyvale, USA).
(§2) Chinese hamster ovary cells (CHO K1 cells) which have been stably transfected with the human B1R gene (hB1R cells) or with the B1R gene of the rat (rB1R cells) are used. For functional studies, the cells are plated out on black 96-well plates having a clear base (BD Biosciences, Heidelberg, Germany or Greiner, Frickenhausen, Germany) in a density of 20,000-35,000 cells/well. The cells are incubated overnight at 37° C. and with 5% CO2 in culture medium (hB1R cells: Nutrient Mixture Ham's F12, Gibco Invitrogen GmbH, Karlsruhe, Germany or DMEM, Sigma-Aldrich, Taufkirchen, Germany; rB1R cells: D-MEM/F12, Gibco Invitrogen GmbH, Karlsruhe, Germany), with 10 vol. % FBS (fetal bovine serum, Gibco Invitrogen GmbH, Karlsruhe, Germany or PAN Biotech GmbH, Aidenbach, Germany).
(§3) On the following day, the cells are loaded for 60 minutes at 37° C. with 2.13 μM Fluo-4 (Molecular Probes Europe BV, Leiden, Netherlands) in HBSS buffer (Hank's buffered saline solution, Gibco Invitrogen GmbH, Karlsruhe, Germany) with 2.5 mM probenecid (Sigma-Aldrich, Taufkirchen, Germany) and 10 mM HEPES (Sigma-Aldrich, Taufkirchen, Germany). The plates are then washed twice with HBSS buffer, and HBSS buffer additionally containing 0.1% BSA (bovine serum albumin; Sigma-Aldrich, Taufkirchen, Germany), 5.6 mM glucose and 0.05% gelatin (Merck KGaA, Darmstadt, Germany) is added to the plates. After incubation for a further 20 minutes at room temperature, the plates are inserted into the FLIPR for Ca^2+ measurement. Alternatively, washing is carried out with buffer A (15 mM HEPES, 80 mM NaCl, 5 mM KCl, 1.2 mM CaCl2, 0.7 mM MgSO4, 2 g/l glucose, 2.5 mM probenecid) followed by loading with buffer A with added 2.5 μM Fluo-4 and 0.025% Pluronic F127 (Sigma-Aldrich, Taufkirchen, Germany). The cells are then washed twice with buffer A and incubated for 30 minutes at room temperature with buffer A additionally containing 0.05% BSA and 0.05% gelatin and are then inserted into the FLIPR for Ca^2+ measurement.
(§4) The Ca^2+-dependent fluorescence is measured before and after the addition of substances (λex=488 nm, λem=540 nm). Quantification is carried out by measuring the highest fluorescence intensity (FC, fluorescence counts) over time.
(§5) The FLIPR protocol consists of two substance additions. Test substances (10 μM) are first pipetted onto the cells and the Ca^2+ influx is compared with the control (hB1R: Lys-Des-Arg^9-bradykinin>=0.5 nM; rB1R: Des-Arg^9-bradykinin 10 μM). This gives the activation in %, based on the Ca^2+ signal after addition of Lys-Des-Arg^9-bradykinin (>=0.5 nM) or Des-Arg^9-bradykinin (10 μM).
(§6) After 10-20 minutes' incubation, Lys-Des-Arg^9-bradykinin (hB1R) or Des-Arg^9-bradykinin (rB1R) is applied in the concentration of the EC80, and the influx of Ca^2+ is likewise determined.
(§7) Antagonists lead to suppression of the Ca^2+ influx. The % inhibition compared with the maximum achievable inhibition is calculated.
(§8) In order to determine the IC50 value, the substances are added in various concentrations. Duplicate or triplicate determinations (n=2 or n=3) are carried out, and these are repeated in at least one further independent experiment (N>=2).

[2] = biological target: T2, human bradykinin receptor 1 (B1R) (Homo sapiens, UniProt P46663); assay: Functional study on the bradykinin receptor 1 (B1R), human: FLIPR Ca2+ influx assay; type: cell-based
T2 construct: expressed in transfected cells; host or cells: CHO K1 cells
T2 sequence (P46663 1-353): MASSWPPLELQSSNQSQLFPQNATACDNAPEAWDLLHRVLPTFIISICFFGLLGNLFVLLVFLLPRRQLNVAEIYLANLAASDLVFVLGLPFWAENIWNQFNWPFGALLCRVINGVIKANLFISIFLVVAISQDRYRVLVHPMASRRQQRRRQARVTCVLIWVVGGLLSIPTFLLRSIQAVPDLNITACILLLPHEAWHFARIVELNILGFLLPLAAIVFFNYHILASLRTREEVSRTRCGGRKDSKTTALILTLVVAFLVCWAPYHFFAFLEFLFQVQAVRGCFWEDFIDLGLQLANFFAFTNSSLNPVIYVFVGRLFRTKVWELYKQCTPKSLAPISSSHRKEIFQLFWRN
Description: Functional Study on the Human Bradykinin Receptor 1 (B1R)
as §1, §2, §3, §4, §5, §6, §7, §8

[3] = test substance 10 μM, CHO K1 cells transfected with rat B1R, Des-Arg9-bradykinin at EC80, Ca2+ influx (Fluo-4, FLIPR), read-out: B1R antagonism, rat [10 μM] % inhibition
[4] = test substance 10 μM, CHO K1 cells transfected with human B1R, Lys-Des-Arg9-bradykinin at EC80, Ca2+ influx (Fluo-4, FLIPR), read-out: B1R antagonism, human [10 μM] % inhibition

Row | SMILES | inhibition at 10 µM ([1]; CHO-K1, read-out: B1R antagonism, rat [10 μM] % inhibition) | inhibition at 10 µM ([2]; CHO-K1, read-out: B1R antagonism, human [10 μM] % inhibition) | inhibition at 10 µM [1, 3] | inhibition at 10 µM [2, 4]
1 | CN(C)C(c1ccccc1)C1CCC(NC(=O)c2ccccc2N(C)S(=O)(=O)c2ccc(Cl)c(Cl)c2)CC1 (stereo not drawn) [Example 11, 2-[(3,4-dichloro-benzenesulfonyl)-methyl-amino]-N-[4-(dimethylamino-phenylmethyl)-cyclohexyl]-benzamide] | 107% | 85.5% |  | 
2 | COc1ccc(S(=O)(=O)N2CCc3ccccc3C2CC(=O)NC2CCC(C(c3cccc(F)c3)N(C)C)CC2)cc1 (stereo not drawn) [Example 13, N-{4-[dimethylamino-(3-fluoro-phenyl)-methyl]-cyclohexyl}-2-[2-(4-methoxybenzenesulfonyl)-1,2,3,4-tetrahydro-isoquinolin-1-yl]-acetamide] |  |  | 76% | 64.4%
3 | COc1ccc(S(=O)(=O)N2CCc3ccccc3C2CC(=O)NC2CCC(C(c3ccc(F)cc3)N(C)C)CC2)cc1 (stereo not drawn) [Example 14, N-{4-[dimethylamino-(4-fluoro-phenyl)-methyl]-cyclohexyl}-2-[2-(4-methoxybenzenesulfonyl)-1,2,3,4-tetrahydro-isoquinolin-1-yl]-acetamide] |  |  | 75% | 86.9%
4 | COc1ccc(S(=O)(=O)N2CCc3ccccc3C2CC(=O)NC2CCC(C(c3cccs3)N(C)C)CC2)cc1 (stereo not drawn) [Example 15, N-[4-(dimethylamino-thiophen-2-yl-methyl)-cyclohexyl]-2-[2-(4-methoxybenzenesulfonyl)-1,2,3,4-tetrahydro-isoquinolin-1-yl]-acetamide] |  |  | 57% | 44.6%
5 | COc1ccc(S(=O)(=O)N2CCc3ccccc3C2CC(=O)NCC2CCC(C(c3cccc(F)c3)N(C)C)CC2)cc1 (stereo not drawn) [Example 16, N-{4-[dimethylamino-(3-fluoro-phenyl)-methyl]-cyclohexylmethyl}-2-[2-(4-methoxy-benzenesulfonyl)-1,2,3,4-tetrahydro-isoquinolin-1-yl]-acetamide] |  |  | 57% | 35.5%
6 | COc1ccc(S(=O)(=O)N2CCc3ccccc3C2CC(=O)NCC2CCC(C(c3ccccc3)N(C)C)CC2)cc1 (stereo not drawn) [Example 17, N-[4-(dimethylamino-phenyl-methyl)-cyclohexylmethyl]-2-[2-(4-methoxybenzenesulfonyl)-1,2,3,4-tetrahydro-isoquinolin-1-yl]-acetamide] |  |  | 41% | 36.6%
7 | COc1ccc(S(=O)(=O)N2CCc3ccccc3C2CC(=O)NCC2CCC(C(CCc3ccccc3)N(C)C)CC2)cc1 (stereo not drawn) [Example 18, N-[4-(1-dimethylamino-3-phenyl-propyl)-cyclohexylmethyl]-2-[2-(4-methoxybenzenesulfonyl)-1,2,3,4-tetrahydro-isoquinolin-1-yl]-acetamide] |  |  | 73% | 58.8%
8 | COc1ccc(S(=O)(=O)N2CCc3ccccc3C2CC(=O)NCC2CCC(C(c3ccc(F)cc3)N(C)C)CC2)cc1 (stereo not drawn) [Example 19, N-{4-[dimethylamino-(4-fluoro-phenyl)-methyl]-cyclohexylmethyl}-2-[2-(4-methoxy-benzenesulfonyl)-1,2,3,4-tetrahydro-isoquinolin-1-yl]-acetamide] |  |  | 41% | 42.7%
9 | COc1ccc(S(=O)(=O)N2CCc3ccccc3C2CC(=O)NCC2CCC(C(c3ccc(Cl)cc3)N(C)C)CC2)cc1 (stereo not drawn) [Example 20, N-{4-[(4-chloro-phenyl)-dimethylamino-methyl]-cyclohexylmethyl}-2-[2-(4-methoxy-benzenesulfonyl)-1,2,3,4-tetrahydro-isoquinolin-1-yl]-acetamide] |  |  | 28% | 38.8%
10 | COc1ccc(S(=O)(=O)N2CCc3ccccc3C2CC(=O)NCC2CCC(C(c3cccs3)N(C)C)CC2)cc1 (stereo not drawn) [Example 21, N-[4-(dimethylamino-thiophen-2-yl-methyl)-cyclohexylmethyl]-2-[2-(4-methoxybenzenesulfonyl)-1,2,3,4-tetrahydro-isoquinolin-1-yl]-acetamide] |  |  | 41% | 52.9%
11 | COc1ccc(S(=O)(=O)N2CCc3ccccc3C2CC(=O)NCCC2CCC(C(c3ccc(Cl)cc3)N(C)C)CC2)cc1 (stereo not drawn) [Example 22, N-(2-{4-[(4-chloro-phenyl)-dimethylamino-methyl]-cyclohexyl}-ethyl)-2-[2-(4-methoxy-benzenesulfonyl)-1,2,3,4-tetrahydro-isoquinolin-1-yl]-acetamide] |  |  | 34% | 70.3%
12 | COc1ccc(S(=O)(=O)N2CCc3ccccc3C2CC(=O)NCCC2CCC(C(c3cccc(F)c3)N(C)C)CC2)cc1 (stereo not drawn) [Example 23, N-(2-{4-[dimethylamino-(3-fluoro-phenyl)-methyl]-cyclohexyl}-ethyl)-2-[2-(4-methoxy-benzenesulfonyl)-1,2,3,4-tetrahydro-isoquinolin-1-yl]-acetamide] |  |  | 57% | 64%
13 | COc1ccc(S(=O)(=O)N2CCc3ccccc3C2CC(=O)NCCC2CCC(C(c3ccc(F)cc3)N(C)C)CC2)cc1 (stereo not drawn) [Example 24, N-(2-{4-[dimethylamino-(4-fluoro-phenyl)-methyl]-cyclohexyl}-ethyl)-2-[2-(4-methoxy-benzenesulfonyl)-1,2,3,4-tetrahydro-isoquinolin-1-yl]-acetamide] |  |  | 67% | 82.2%
14 | COc1ccc(S(=O)(=O)N2CCc3ccccc3C2CC(=O)NCCC2CCC(C(c3cccs3)N(C)C)CC2)cc1 (stereo not drawn) [Example 25, N-{2-[4-(dimethylamino-thiophen-2-yl-methyl)-cyclohexyl]-ethyl}-2-[2-(4-methoxy-benzenesulfonyl)-1,2,3,4-tetrahydro-isoquinolin-1-yl]-acetamide] |  |  | 68% | 79.5%
15 | CN(C)C(c1cccc(F)c1)C1CCC(NC(=O)CC2c3ccccc3CCN2S(=O)(=O)c2ccc(Cl)c(Cl)c2)CC1 (stereo not drawn) [Example 26, 2-(2-(3,4-dichlorophenylsulfonyl)-1,2,3,4-tetrahydroisoquinolin-1-yl)-N-(4-((dimethylamino)(3-fluorophenyl)methyl)cyclohexyl)acetamide] |  |  | 73% | 97.4%
